Values of other authors, collected in patent US4689323A, “Covalently bound heparin--antithrombin-III complex” (Miles Laboratories, Inc., priority 1983, dated 1987).

What was measured:
[1] = Scientific Protein Labs., porcine intestines
[2] = test system: plasma antithrombin-III ("AT-III"); conditions: continuous intravenous infusion, thromboembolic patients

In the case of heparin sodium, the “anticoagulant activity of the starting heparin” value [1] is given as 167.7 USP units/mg and the “decrease in plasma antithrombin-III levels” value [2] is given as “about 35%”.
